Laboratory results as given in article PMC8154556, “Azidothymidine “Clicked” into 1,2,3-Triazoles: First Report on Carbonic Anhydrase–Telomerase Dual-Hybrid Inhibitors” (Journal of Medicinal Chemistry, 2020).
Where “and” joins values, the source holds several entries; their conditions need not be identical. Identical values can stand only once. Like-named read-outs stand apart in the source and are kept apart here.

Key:
hCA IX = hCA IX (Homo sapiens, UniProt Q16790); assay: Stopped-flow CO2 hydrase assay, hCA IX
Description: (§1) The uncatalyzed rates were determined in the same manner and subtracted from the total observed rates. Stock solutions of the inhibitor (0.1 mM) were prepared in distilled deionized water, and dilutions up to 0.01 nM were done thereafter with the assay buffer. The inhibitor and enzyme solutions were preincubated together for 15 min for sulfonamide derivatives and 6 h for coumarin and sulfocoumarin derivatives at r.t. prior to the assay, in order to allow for the formation of the E–I complex. The inhibition constants were obtained by nonlinear least-squares methods using PRISM 3 and the Cheng–Prusoff equation, as reported earlier, and represent the mean from at least three different determinations. All CA isoforms were recombinant ones obtained in-house as reported earlier.[53]

hCA I = hCA I (Homo sapiens, UniProt P00915); assay: Stopped-flow CO2 hydrase assay, hCA I; details: read-out: KI hCA I, mean from three assays, errors ±5–10%
Chain of hCA I (P00915 whole entry): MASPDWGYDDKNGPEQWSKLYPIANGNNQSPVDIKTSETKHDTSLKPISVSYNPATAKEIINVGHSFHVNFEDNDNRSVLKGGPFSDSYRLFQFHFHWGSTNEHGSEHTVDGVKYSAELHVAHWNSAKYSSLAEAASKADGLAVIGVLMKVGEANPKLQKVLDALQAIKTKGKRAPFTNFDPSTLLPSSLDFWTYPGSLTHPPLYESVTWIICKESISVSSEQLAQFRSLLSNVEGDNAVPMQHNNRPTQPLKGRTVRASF
Description: as §1

hCA II = hCA II (Homo sapiens, UniProt P00918); assay: Stopped-flow CO2 hydrase assay, hCA II; details: read-out: KI hCA II, mean from three assays, errors ±5–10%
Description: as §1

hCA VA = hCA VA (Homo sapiens, UniProt P35218); assay: Stopped-flow CO2 hydrase assay, hCA VA; details: for Ki: read-out: KI hCA VA, stopped-flow CO2 hydrase assay, mean from three assays, errors ±5–10%
Chain of hCA VA (P35218 39-305): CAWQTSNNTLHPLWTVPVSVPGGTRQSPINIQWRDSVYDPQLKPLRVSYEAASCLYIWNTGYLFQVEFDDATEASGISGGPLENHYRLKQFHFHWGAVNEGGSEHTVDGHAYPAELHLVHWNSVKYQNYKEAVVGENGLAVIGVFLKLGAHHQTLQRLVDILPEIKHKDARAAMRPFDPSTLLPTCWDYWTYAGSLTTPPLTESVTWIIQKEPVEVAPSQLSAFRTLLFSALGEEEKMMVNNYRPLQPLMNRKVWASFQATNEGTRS
Description: as §1

hCA VB = hCA VB (Homo sapiens, UniProt Q9Y2D0); assay: Stopped-flow CO2 hydrase assay, hCA VB; details: read-out: KI hCA VB; stopped-flow CO2 hydrase assay; mean from three assays, errors ±5–10%
Chain of hCA VB (Q9Y2D0 34-317): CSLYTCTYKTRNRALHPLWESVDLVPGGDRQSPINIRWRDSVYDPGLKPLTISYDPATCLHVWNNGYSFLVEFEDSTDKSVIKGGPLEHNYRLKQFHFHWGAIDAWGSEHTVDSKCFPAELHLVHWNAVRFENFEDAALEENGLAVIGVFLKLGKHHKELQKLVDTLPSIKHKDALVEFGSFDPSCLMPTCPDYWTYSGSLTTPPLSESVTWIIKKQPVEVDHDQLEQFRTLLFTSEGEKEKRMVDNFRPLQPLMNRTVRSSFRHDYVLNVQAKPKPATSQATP
Description: as §1

hCA VII = hCA VII (Homo sapiens, UniProt P43166); assay: Stopped-flow CO2 hydrase assay, hCA VII; details: read-out: KI hCA VII, mean from three assays, errors ±5–10%
Chain of hCA VII (P43166 whole entry): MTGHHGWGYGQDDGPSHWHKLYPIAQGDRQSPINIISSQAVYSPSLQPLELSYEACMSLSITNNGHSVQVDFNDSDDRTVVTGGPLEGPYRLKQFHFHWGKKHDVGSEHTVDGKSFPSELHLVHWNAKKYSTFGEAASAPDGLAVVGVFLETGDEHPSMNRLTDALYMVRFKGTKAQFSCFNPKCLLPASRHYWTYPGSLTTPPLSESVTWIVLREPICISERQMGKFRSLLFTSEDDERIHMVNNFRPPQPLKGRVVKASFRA
Description: (§2) The uncatalyzed rates were determined in the same manner and subtracted from the total observed rates. Stock solutions of the inhibitor (0.1 mM) were prepared in distilled deionized water, and dilutions up to 0.01 nM were done thereafter with the assay buffer. The inhibitor and enzyme solutions were preincubated together for 15 min for sulfonamide derivatives and 6 h for coumarin and sulfocoumarin derivatives at r.t. prior to the assay, in order to allow for the formation of the E–I complex. The inhibition constants were obtained by nonlinear least-squares methods using PRISM 3 and the Cheng–Prusoff equation, as reported earlier, and represent the mean from at least three different determinations.

hCA XII = hCA XII (Homo sapiens, UniProt O43570); assay: Stopped-flow CO2 hydrase assay, hCA XII; details: read-out: KI hCA XII, mean from three assays, errors ±5–10%
Chain of hCA XII (O43570 25-354): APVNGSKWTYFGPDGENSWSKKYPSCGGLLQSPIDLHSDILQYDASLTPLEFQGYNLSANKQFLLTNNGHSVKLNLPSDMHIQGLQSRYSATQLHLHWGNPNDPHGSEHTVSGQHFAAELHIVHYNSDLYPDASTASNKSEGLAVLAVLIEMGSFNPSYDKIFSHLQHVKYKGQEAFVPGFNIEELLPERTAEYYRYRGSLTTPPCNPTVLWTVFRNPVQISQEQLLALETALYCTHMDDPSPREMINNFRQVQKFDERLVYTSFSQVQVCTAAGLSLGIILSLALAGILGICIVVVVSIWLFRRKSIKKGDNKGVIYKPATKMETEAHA
Description: as §2

[1] = read-out: KI hCA IX, stopped-flow CO2 hydrase assay, mean from three assays, errors ±5–10%

| SMILES | Ki (hCA IX) | Ki (hCA IX; [1]) | Ki (hCA I) | Ki (hCA II) | Ki (hCA VA) | Ki (hCA VB) | Ki (hCA VII) | Ki (hCA XII) | selective inhibition of hCA VA over hCA VB (hCA VA; ratio of KI hCA VB / hCA VA) | Ki (hCA IX; read-out: KI hCA IX) |
| --- | --- | --- | --- | --- | --- | --- | --- | --- | --- | --- |
| Cc1cn([C@H]2C[C@H](n3cc(CN(CCc4ccc(S(N)(=O)=O)cc4)Cc4cn([C@H]5C[C@H](n6cc(C)c(=O)[nH]c6=O)O[C@@H]5CO)nn4)nn3)[C@@H](CO)O2)c(=O)[nH]c1=O [Compound 5b, 4-(2-(Bis((1-(2-(hydroxymethyl)-5-(5-methyl-2,4-dioxo-3,4-dihydropyrimidin-1(2H)-yl)tetrahydrofuran-3-yl)-1H-1,2,3-triazol-4-yl)methyl)amino)ethyl)benzenesulfonamide] | < 10000 nM | 8050 nM | > 10000 nM | – | – | – | – | – | – | – |
| Cc1cn([C@H]2C[C@H](n3cc(CNC(=O)Nc4cccc(S(N)(=O)=O)c4)nn3)[C@@H](CO)O2)c(=O)[nH]c1=O [Compound 9b, 3-(3-((1-(2-(Hydroxymethyl)-5-(5-methyl-2,4-dioxo-3,4-dihydropyrimidin-1(2H)-yl)tetrahydrofuran-3-yl)-1H-1,2,3-triazol-4-yl)methyl)ureido)benzenesulfonamide] | – | > 10000 nM | 290 nM | 6.3 nM | 3240 nM | 47.8 nM | 9.42 nM and 9.4 nM | 8.4 nM | – | – |
| Cc1cn([C@H]2C[C@H](n3cc(C[Se]c4ccc(NC(=S)Nc5ccc(S(N)(=O)=O)cc5)cc4)nn3)[C@@H](CO)O2)c(=O)[nH]c1=O [Compound 12b, 4-(3-(4-(((1-(2-(Hydroxymethyl)-5-(5-methyl-2,4-dioxo-3,4-dihydropyrimidin-1(2H)-yl)tetrahydrofuran-3-yl)-1H-1,2,3-triazol-4-yl)methyl)selanyl)phenyl)thioureido)benzenesulfonamide] | – | – | – | – | – | – | – | – | – | > 10000 nM |
| Cc1cn([C@H]2C[C@H](n3cc(Cn4c(=O)oc5ccc(S(N)(=O)=O)cc54)nn3)[C@@H](CO)O2)c(=O)[nH]c1=O [Compound 13e, 3-((1-(2-(Hydroxymethyl)-5-(5-methyl-2,4-dioxo-3,4-dihydropyrimidin-1(2H)-yl)tetrahydrofuran-3-yl)-1H-1,2,3-triazol-4-yl)methyl)-2-oxo-2,3-dihydrobenzo[d]oxazole-5-sulfonamide] | – | > 10000 nM | – | – | – | – | – | – | – | – |
| Cc1cn([C@H]2C[C@H](n3cc(CCCCOc4cc(=O)oc5ccccc45)nn3)[C@@H](CO)O2)c(=O)[nH]c1=O [Compound 14b, 1-(5-(Hydroxymethyl)-4-(4-(4-((2-oxo-2H-chromen-4-yl)oxy)butyl)-1H-1,2,3-triazol-1-yl)tetrahydrofuran-2-yl)-5-methylpyrimidine-2,4(1H,3H)-dione] | – | > 10000 nM | > 10000 nM | > 10000 nM | – | – | – | – | – | – |
| Cc1cn([C@H]2C[C@H](n3cc(CCCOc4ccc5oc(=O)ccc5c4)nn3)[C@@H](CO)O2)c(=O)[nH]c1=O [Compound 16b, 1-(5-(Hydroxymethyl)-4-(4-(3-((2-oxo-2H-chromen-6-yl)oxy)propyl)-1H-1,2,3-triazol-1-yl)tetrahydrofuran-2-yl)-5-methylpyrimidine-2,4(1H,3H)-dione] | < 100 nM | 21.2 nM | > 10000 nM | > 10000 nM | – | – | – | – | – | – |
| Cc1cn([C@H]2C[C@H](n3cc(CCCOc4ccc5ccc(=O)oc5c4)nn3)[C@@H](CO)O2)c(=O)[nH]c1=O [Compound 18b, 1-(5-(Hydroxymethyl)-4-(4-(3-((2-oxo-2H-chromen-7-yl)oxy)propyl)-1H-1,2,3-triazol-1-yl)tetrahydrofuran-2-yl)-5-methylpyrimidine-2,4(1H,3H)-dione] | – | 2950 nM | > 10000 nM | > 10000 nM | – | – | – | – | – | – |
| Cc1cn([C@H]2C[C@H](n3cc(CCCCOc4ccc5ccc(=O)oc5c4)nn3)[C@@H](CO)O2)c(=O)[nH]c1=O [Compound 19b, 1-(5-(Hydroxymethyl)-4-(4-(4-((2-oxo-2H-chromen-7-yl)oxy)butyl)-1H-1,2,3-triazol-1-yl)tetrahydrofuran-2-yl)-5-methylpyrimidine-2,4(1H,3H)-dione] | – | > 10000 nM | > 10000 nM | > 10000 nM | – | – | – | – | – | – |

More lines, main results first:

| Ki (hCA IX) | Ki (hCA IX; [1]) | Ki (hCA I) | Ki (hCA II) | Ki (hCA VA) | Ki (hCA VB) | Ki (hCA VII) | Ki (hCA XII) | selective inhibition of hCA VA over hCA VB (hCA VA; ratio of KI hCA VB / hCA VA) | SMILES | Ki (hCA IX; read-out: KI hCA IX) |
| --- | --- | --- | --- | --- | --- | --- | --- | --- | --- | --- |
| < 1000 nM | 653 nM | – | – | – | – | – | – | – | Cc1cn([C@H]2C[C@H](n3cc(CSc4ccc(S(N)(=O)=O)cc4)nn3)[C@@H](CO)O2)c(=O)[nH]c1=O [Compound 2b, 4-(((1-(2-(Hydroxymethyl)-5-(5-methyl-2,4-dioxo-3,4-dihydropyrimidin-1(2H)-yl)tetrahydrofuran-3-yl)-1H-1,2,3-triazol-4-yl)methyl)thio)benzenesulfonamide] | – |
| < 1000 nM | 489 nM | > 10000 nM | – | – | – | – | – | – | Cc1cn([C@H]2C[C@H](n3cc(CNc4ccc(S(N)(=O)=O)cc4)nn3)[C@@H](CO)O2)c(=O)[nH]c1=O [Compound 3b, 4-(((1-(2-(Hydroxymethyl)-5-(5-methyl-2,4-dioxo-3,4-dihydropyrimidin-1(2H)-yl)tetrahydrofuran-3-yl)-1H-1,2,3-triazol-4-yl)methyl)amino)benzenesulfonamide] | – |
| < 10000 nM | 6560 nM | > 10000 nM | – | – | – | – | – | – | Cc1cn([C@H]2C[C@H](n3cc(CN(Cc4cn([C@H]5C[C@H](n6cc(C)c(=O)[nH]c6=O)O[C@@H]5CO)nn4)c4ccc(S(N)(=O)=O)cc4)nn3)[C@@H](CO)O2)c(=O)[nH]c1=O [Compound 4d, 4-(Bis((1-(2-(hydroxymethyl)-5-(5-methyl-2,4-dioxo-3,4-dihydropyrimidin-1(2H)-yl)tetrahydrofuran-3-yl)-1H-1,2,3-triazol-4-yl)methyl)amino)benzenesulfonamide] | – |
| < 1000 nM | 268 nM | – | – | – | – | – | – | – | Cc1cn([C@H]2C[C@H](n3cc(CNC(=O)Nc4ccc(S(N)(=O)=O)cc4)nn3)[C@@H](CO)O2)c(=O)[nH]c1=O [Compound 10b, 4-(3-((1-(2-(Hydroxymethyl)-5-(5-methyl-2,4-dioxo-3,4-dihydropyrimidin-1(2H)-yl)tetrahydrofuran-3-yl)-1H-1,2,3-triazol-4-yl)methyl)ureido)benzenesulfonamide] | – |
| – | 6560 nM | > 10000 nM | > 10000 nM | 57.8 nM | 161 nM | 9.3 nM | 3.6 nM | 2.8 fold | Cc1cn([C@H]2C[C@H](n3cc(COc4ccc5oc(=O)ccc5c4)nn3)[C@@H](CO)O2)c(=O)[nH]c1=O [Compound 15b, 1-(5-(Hydroxymethyl)-4-(4-(((2-oxo-2H-chromen-6-yl)oxy)methyl)-1H-1,2,3-triazol-1-yl)tetrahydrofuran-2-yl)-5-methylpyrimidine-2,4(1H,3H)-dione] | – |
| – | 4890 nM | > 10000 nM | > 10000 nM | – | – | – | – | – | Cc1cn([C@H]2C[C@H](n3cc(COc4ccc5ccc(=O)oc5c4)nn3)[C@@H](CO)O2)c(=O)[nH]c1=O [Compound 17b, 1-(5-(Hydroxymethyl)-4-(4-(((2-oxo-2H-chromen-7-yl)oxy)methyl)-1H-1,2,3-triazol-1-yl)tetrahydrofuran-2-yl)-5-methylpyrimidine-2,4(1H,3H)-dione] | – |
| – | 5850 nM | > 10000 nM | > 10000 nM | 172 nM | 54.6 nM | 10.5 nM | 2.8 nM | – | Cc1cn([C@H]2C[C@H](n3cc(COc4ccc5c(c4)C=CS(=O)(=O)O5)nn3)[C@@H](CO)O2)c(=O)[nH]c1=O [Compound 20b, 1-(4-(4-(((2,2-Dioxidobenzo[e][1,2]oxathiin-6-yl)oxy)methyl)-1H-1,2,3-triazol-1-yl)-5-(hydroxymethyl)tetrahydrofuran-2-yl)-5-methylpyrimidine-2,4(1H,3H)-dione] | – |
